In ChEMBL document CHEMBL1144284, “Pharmacophore identification of alpha(1A)-adrenoceptor antagonists” (Bioorg Med Chem Lett, 2005):

The molecules below were run against T1, Alpha-1A adrenergic receptor (Homo sapiens, UniProt P35348) (assay: Binding constant measured against Alpha-1A adrenergic receptor in human prostate; ++:moderately active).
T1 sequence (P35348 whole entry): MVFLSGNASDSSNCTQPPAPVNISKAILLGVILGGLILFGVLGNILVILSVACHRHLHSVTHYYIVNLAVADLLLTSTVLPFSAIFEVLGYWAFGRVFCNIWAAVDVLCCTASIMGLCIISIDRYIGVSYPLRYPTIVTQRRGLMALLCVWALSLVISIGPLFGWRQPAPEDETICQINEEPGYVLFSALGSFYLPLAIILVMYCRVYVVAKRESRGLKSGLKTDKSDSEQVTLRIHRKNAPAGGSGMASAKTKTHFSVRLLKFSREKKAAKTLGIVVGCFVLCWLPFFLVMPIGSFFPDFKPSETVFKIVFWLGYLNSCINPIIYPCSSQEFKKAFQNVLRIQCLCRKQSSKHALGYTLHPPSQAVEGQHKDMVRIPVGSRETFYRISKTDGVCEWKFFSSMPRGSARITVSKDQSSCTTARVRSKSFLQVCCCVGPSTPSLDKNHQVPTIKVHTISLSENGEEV
Type: tissue-based, Prostate gland

Row | Structure (SMILES) | Ki [nM]
1 | C[C@@]1(O)C(=O)N(CCCN2CCN(c3ccc(F)cc3OCC(F)(F)F)CC2)C(=O)N[C@@H]1O | 5
2 | COc1ccc(Cl)cc1N1CCN(CCCNc2nccc(C(N)=O)n2)CC1 | 2
3 | CC(C)Oc1ccccc1N1CCN(CCNC(=O)CN2CCCCC2=O)CC1 [RWJ-38063] | 9.3
4 | CCOC(=O)C1CCC(=O)N1CC(=O)CCN1CCN(c2ccccc2OC(C)C)CC1 (stereo not given) | 59
5 | N=C(Nc1ccccc1)N1CCN(/C=C2/N=C(c3cccc4ccccc34)OC2=O)CC1 | 41
6 | O=C(CCCN1CCC2(CC1)C(=O)NCN2c1ccccc1)c1ccc(F)cc1 [SPIPERONE] | 7.9
7 | COc1cccc(OC)c1OCCNCC1Oc2ccccc2OC1c1ccc(C)cc1 (stereo not given) | 4.1
8 | COc1ccccc1N1CCN(CCN2C(=O)c3ccccc3C(C)(C)C2=O)CC1 | 1
9 | CC(C)Oc1ccccc1N1CCN(CCNC(=O)CN2CCCCCC2=O)CC1 [RWJ-68157] | 22
10 | COc1ccccc1N1CCN(CC(O)COc2cccc3ccccc23)CC1 (stereo not given) [NAFTOPIDIL] | 3.7

These molecules were tested against T1, Alpha-1A adrenergic receptor (assay: Binding constant measured against Alpha-1A adrenergic receptor in human prostate; +:inactive).
Type: tissue-based, Prostate gland

Row | Structure (SMILES) | Ki [nM]
11 | COc1cc2c3c(c1OC)-c1cc4c(cc1C[C@@H]3N(C)CC2)OCO4 | 430
12 | N=C(CC(O)COc1ccccc1-c1ccccc1)N1CCCCC1 (stereo not given) | 2500
13 | C[C@H](CN1CCN(c2cc(F)c(F)cc2F)CC1)N1C(=O)CC2(CCCC2)CC1=O | 290
14 | CCS(=O)(=O)Nc1cccc(C(=C2CCCCC2)c2c[nH]cn2)c1 | 490

What follows are molecules tested against T1, Alpha-1A adrenergic receptor (assay: Binding constant measured against Alpha-1A adrenergic receptor in human prostate; +++:highly active).
Type: tissue-based, Prostate gland

Row | Structure (SMILES) | Ki [nM]
15 | C[C@H](Cc1cc2c(c(C(N)=O)c1)N(CCCO)CC2)NCCOc1ccccc1OCC(F)(F)F [SILODOSIN] | 0.036
16 | COc1cccc(OC)c1OCCNC[C@H]1CSc2ccccc2O1 | 0.2
17 | CC(C)Oc1ccccc1N1CCN(CCCNC(=O)CN2CCCCC2=O)CC1 [RWJ-69736] | 0.65
18 | COc1cccc(OC)c1OCCNC[C@@H]1Oc2ccccc2O[C@H]1c1ccc(C)cc1 | 0.35
19 | CC(C)(Cc1c[nH]c2ccc(Cl)cc12)NCCOc1ccccc1OCC1CC1 | 0.6
20 | COCC1=C(C(=O)OC)[C@H](c2ccc(F)c(F)c2)N(C(=O)NCCCN2CCC(c3ccccn3)CC2)C(=O)N1 | 0.36
